pIC50: −log10 of the molar value.
Target: T1, CCR2 receptor (Homo sapiens, UniProt P41597)
T1 construct: expressed in transfected cells
Test: Calcium activity assay on FLIPR Tetra in HEK-Gqi5 cells stably expressing CCR2
Assay type: cell-based
Procedure: HEK-Gqi5 cells stably expressing CCR2 were cultured in DMEM high glucose, 10% FBS, 1% PSA, 400 μg/ml geneticin and 50 μg/ml hygromycin. Appropriate positive control chemokines (MCP-1, MIP1A or RANTES) was used as the positive control agonist for screening compound-induced calcium activity assayed on the FLIPR^Tetra. The drug plates were prepared in 384-well microplates using the EP3 and the MultiPROBE robotic liquid handling systems. Compounds were synthesized and tested for CCR2 activity.

T1 sequence (P41597 whole entry): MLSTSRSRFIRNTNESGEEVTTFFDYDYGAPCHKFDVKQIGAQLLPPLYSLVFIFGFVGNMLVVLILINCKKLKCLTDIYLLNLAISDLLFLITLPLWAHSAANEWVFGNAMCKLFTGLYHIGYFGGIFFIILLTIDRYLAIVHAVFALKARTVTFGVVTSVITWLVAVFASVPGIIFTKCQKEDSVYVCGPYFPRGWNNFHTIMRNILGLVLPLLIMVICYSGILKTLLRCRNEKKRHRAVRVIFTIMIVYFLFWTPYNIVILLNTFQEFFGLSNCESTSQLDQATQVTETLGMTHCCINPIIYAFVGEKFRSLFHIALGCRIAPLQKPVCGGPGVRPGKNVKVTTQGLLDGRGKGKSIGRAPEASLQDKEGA

With O=C(NCCN1CCCC1)c1cccc(CS(=O)(=O)c2ccc(Cl)cc2NS(=O)(=O)c2ccc(Cl)c(C(F)(F)F)c2)c1 the “CCR2 % ANTAGONISM” value was 110% and the pIC50 was 6.09.

With CN(C)C(=O)c1ccccc1CSc1ccc(Cl)cc1NS(=O)(=O)c1ccc(Cl)c(C(F)(F)F)c1 [2-({[4-chloro-2-({[4-chloro-3-(trifluoromethyl)phenyl]sulfonyl}amino)phenyl]sulfanyl}methyl)-N,N-dimethylbenzamide] the “CCR2 % ANTAGONISM” value was 71% and the pIC50 was 6.77.

For CCNC(=O)c1ccccc1CSc1ccc(Cl)cc1NS(=O)(=O)c1ccc(Cl)c(C(F)(F)F)c1 [2-({[4-chloro-2-({[4-chloro-3-(trifluoromethyl)phenyl]sulfonyl}amino)phenyl]sulfanyl}methyl)-N-ethylbenzamide], the “CCR2 % ANTAGONISM” value was 92% and the pIC50 was 6.83.

NC(=O)c1ccccc1CSc1ccc(Cl)cc1NS(=O)(=O)c1ccc(Cl)c(C(F)(F)F)c1 [2-({[4-chloro-2-({[4-chloro-3-(trifluoromethyl)phenyl]sulfonyl}amino)phenyl]sulfanyl}methyl)benzamide] was tested, and the “CCR2 % ANTAGONISM” value was 88% and the pIC50 was 6.78.

In the case of O=C(O)c1ccccc1CSc1ccc(Cl)cc1NS(=O)(=O)c1ccc(Cl)c(C(F)(F)F)c1 [2-({[4-chloro-2-({[4-chloro-3-(trifluoromethyl)phenyl]sulfonyl}amino)phenyl]sulfanyl}methyl)benzoic acid], the “CCR2 % ANTAGONISM” value was 99% and the pIC50 was 7.10.

With O=C(O)c1ccccc1C[S+]([O-])c1ccc(Cl)cc1NS(=O)(=O)c1ccc(Cl)c(C(F)(F)F)c1 (centres unmarked) [2-({[4-chloro-2-({[4-chloro-3-(trifluoromethyl)phenyl]sulfonyl}amino)phenyl]sulfinyl}methyl)benzoic acid] the “CCR2 % ANTAGONISM” value was 99% and the pIC50 was 6.07.

With O=C(O)c1ccccc1CS(=O)(=O)c1ccc(Cl)cc1NS(=O)(=O)c1ccc(Cl)c(C(F)(F)F)c1 [2-({[4-chloro-2-({[4-chloro-3-(trifluoromethyl)phenyl]sulfonyl}amino)phenyl]sulfonyl}methyl)benzoic acid] the “CCR2 % ANTAGONISM” value was 105%.

With O=C(O)c1ccccc1CSc1ccc(Cl)cc1NS(=O)(=O)c1cc2ccccc2o1 [2-[({2-[(1-benzofuran-2-ylsulfonyl)amino]-4-chlorophenyl}sulfanyl)methyl]benzoic acid] the “CCR2 % ANTAGONISM” value was 101% and the pIC50 was 8.15.

In the case of O=C(O)c1ccccc1C[S+]([O-])c1ccc(Cl)cc1NS(=O)(=O)c1cc2ccccc2o1 (centres unmarked) [2-[({2-[(1-benzofuran-2-ylsulfonyl)amino]-4-chlorophenyl}sulfinyl)methyl]benzoic acid], the “CCR2 % ANTAGONISM” value was 98% and the pIC50 was 6.09.

O=C(O)c1ccccc1CS(=O)(=O)c1ccc(Cl)cc1NS(=O)(=O)c1cc2ccccc2o1 [2-[({2-[(1-benzofuran-2-ylsulfonyl)amino]-4-chlorophenyl}sulfonyl)methyl]benzoic acid] was tested, and the “CCR2 % ANTAGONISM” value was 96%.

With O=C(O)c1ccccc1CSc1ccc(F)cc1NS(=O)(=O)c1cc2ccccc2o1 [2-[({2-[(1-benzofuran-2-ylsulfonyl)amino]-4-fluorophenyl}sulfanyl)methyl]benzoic acid] the “CCR2 % ANTAGONISM” value was 99% and the pIC50 was 7.96.

For O=C(O)c1ccccc1C[S+]([O-])c1ccc(F)cc1NS(=O)(=O)c1cc2ccccc2o1 (centres unmarked) [2-[({2-[(1-benzofuran-2-ylsulfonyl)amino]-4-fluorophenyl}sulfinyl)methyl]benzoic acid], the “CCR2 % ANTAGONISM” value was 92% and the pIC50 was 5.73.

With O=C(O)c1ccccc1CS(=O)(=O)c1ccc(F)cc1NS(=O)(=O)c1cc2ccccc2o1 [2-[({2-[(1-benzofuran-2-ylsulfonyl)amino]-4-fluorophenyl}sulfonyl)methyl]benzoic acid] the “CCR2 % ANTAGONISM” value was 89% and the pIC50 was 5.61.

With O=C(O)CCSc1ccc(Cl)cc1NS(=O)(=O)c1cc2ccccc2o1 [3-({2-[(1-benzofuran-2-ylsulfonyl)amino]-4-chlorophenyl}sulfanyl)propanoic acid] the “CCR2 % ANTAGONISM” value was 99% and the pIC50 was 7.34.

O=C(NCCN1CCCC1)c1cccc(CSc2ccc(Cl)cc2NS(=O)(=O)c2ccc(Cl)c(C(F)(F)F)c2)c1 [3-({[4-chloro-2-({[4-chloro-3-(trifluoromethyl)phenyl]sulfonyl}amino)phenyl]sulfanyl}methyl)-N-[2-(pyrrolidin-1-yl)ethyl]benzamide] was tested, and the “CCR2 % ANTAGONISM” value was 97% and the pIC50 was 5.66.

With O=C(O)c1cccc(CSc2ccc(Cl)cc2NS(=O)(=O)c2ccc(Cl)c(C(F)(F)F)c2)c1 [3-({[4-chloro-2-({[4-chloro-3-(trifluoromethyl)phenyl]sulfonyl}amino)phenyl]sulfanyl}methyl)benzoic acid] the “CCR2 % ANTAGONISM” value was 102% and the pIC50 was 7.25.

In the case of O=C(NCCN1CCCC1)c1cccc(C[S+]([O-])c2ccc(Cl)cc2NS(=O)(=O)c2ccc(Cl)c(C(F)(F)F)c2)c1 (centres unmarked) [3-({[4-chloro-2-({[4-chloro-3-(trifluoromethyl)phenyl]sulfonyl}amino)phenyl]sulfinyl}methyl)-N-[2-(pyrrolidin-1-yl)ethyl]benzamide], the “CCR2 % ANTAGONISM” value was 105% and the pIC50 was 6.04.

In the case of O=C(O)c1cccc(C[S+]([O-])c2ccc(Cl)cc2NS(=O)(=O)c2ccc(Cl)c(C(F)(F)F)c2)c1 (centres unmarked) [3-({[4-chloro-2-({[4-chloro-3-(trifluoromethyl)phenyl]sulfonyl}amino)phenyl]sulfinyl}methyl)benzoic acid], the “CCR2 % ANTAGONISM” value was 89%.

With O=C(NCC[N+]1([O-])CCCC1)c1cccc(CS(=O)(=O)c2ccc(Cl)cc2NS(=O)(=O)c2ccc(Cl)c(C(F)(F)F)c2)c1 [3-({[4-chloro-2-({[4-chloro-3-(trifluoromethyl)phenyl]sulfonyl}amino)phenyl]sulfonyl}methyl)-N-[2-(1-oxidopyrrolidin-1-yl)ethyl]benzamide] the “CCR2 % ANTAGONISM” value was 51%.

O=C(O)c1cccc(CS(=O)(=O)c2ccc(Cl)cc2NS(=O)(=O)c2ccc(Cl)c(C(F)(F)F)c2)c1 [3-({[4-chloro-2-({[4-chloro-3-(trifluoromethyl)phenyl]sulfonyl}amino)phenyl]sulfonyl}methyl)benzoic acid] was tested, and the “CCR2 % ANTAGONISM” value was 101% and the pIC50 was 5.80.

With CCN(C)C(=O)CCSc1ccc(Cl)cc1NS(=O)(=O)c1ccc(Cl)cc1F [3-[(4-chloro-2-{[(4-chloro-2-fluorophenyl)sulfonyl]amino}phenyl)sulfanyl]-N-ethyl-N-methylpropanamide] the “CCR2 % ANTAGONISM” value was 49%.

O=C(O)CCSc1ccc(Cl)cc1NS(=O)(=O)c1ccc(Cl)cc1F [3-[(4-chloro-2-{[(4-chloro-2-fluorophenyl)sulfonyl]amino}phenyl)sulfanyl]propanoic acid] was tested, and the “CCR2 % ANTAGONISM” value was 102% and the pIC50 was 6.89.

In the case of CCN(C)C(=O)CC[S+]([O-])c1ccc(Cl)cc1NS(=O)(=O)c1ccc(Cl)cc1F (centres unmarked) [3-[(4-chloro-2-{[(4-chloro-2-fluorophenyl)sulfonyl]amino}phenyl)sulfinyl]-N-ethyl-N-methylpropanamide], the “CCR2 % ANTAGONISM” value was 89% and the pIC50 was 5.12.

In the case of O=C(O)CC[S+]([O-])c1ccc(Cl)cc1NS(=O)(=O)c1ccc(Cl)cc1F (centres unmarked) [3-[(4-chloro-2-{[(4-chloro-2-fluorophenyl)sulfonyl]amino}phenyl)sulfinyl]propanoic acid], the “CCR2 % ANTAGONISM” value was 83%.

CCN(C)C(=O)CCS(=O)(=O)c1ccc(Cl)cc1NS(=O)(=O)c1ccc(Cl)cc1F [3-[(4-chloro-2-{[(4-chloro-2-fluorophenyl)sulfonyl]amino}phenyl)sulfonyl]-N-ethyl-N-methylpropanamide] was tested, and the “CCR2 % ANTAGONISM” value was 87% and the pIC50 was 5.65.

With O=C(O)CCS(=O)(=O)c1ccc(Cl)cc1NS(=O)(=O)c1ccc(Cl)cc1F [3-[(4-chloro-2-{[(4-chloro-2-fluorophenyl)sulfonyl]amino}phenyl)sulfonyl]propanoic acid] the “CCR2 % ANTAGONISM” value was 90%.

In the case of CCN(CC)C(=O)CC[S+]([O-])c1ccc(Cl)cc1NS(=O)(=O)c1ccc(Cl)c(C(F)(F)F)c1 (centres unmarked) [3-{[4-chloro-2-({[4-chloro-3-(trifluoromethyl)phenyl]sulfonyl}amino)phenyl]sulfinyl}-N,N-diethylpropanamide], the “CCR2 % ANTAGONISM” value was 56% and the pIC50 was 5.77.

For CCN(CC)C(=O)CCS(=O)(=O)c1ccc(Cl)cc1NS(=O)(=O)c1ccc(Cl)c(C(F)(F)F)c1 [3-{[4-chloro-2-({[4-chloro-3-(trifluoromethyl)phenyl]sulfonyl}amino)phenyl]sulfonyl}-N,N-diethylpropanamide], the “CCR2 % ANTAGONISM” value was 61% and the pIC50 was 5.73.

In the case of O=C(NCC[N+]1([O-])CCCC1)c1ccc(CSc2ccc(Cl)cc2NS(=O)(=O)c2ccc(Cl)c(C(F)(F)F)c2)cc1 [4-({[4-chloro-2-({[4-chloro-3-(trifluoromethyl)phenyl]sulfonyl}amino)phenyl]sulfanyl}methyl)-N-[2-(1-oxidopyrrolidin-1-yl)ethyl]benzamide], the “CCR2 % ANTAGONISM” value was 31%.

O=C(NCCN1CCCC1)c1ccc(CSc2ccc(Cl)cc2NS(=O)(=O)c2ccc(Cl)c(C(F)(F)F)c2)cc1 [4-({[4-chloro-2-({[4-chloro-3-(trifluoromethyl)phenyl]sulfonyl}amino)phenyl]sulfanyl}methyl)-N-[2-(pyrrolidin-1-yl)ethyl]benzamide] was tested, and the “CCR2 % ANTAGONISM” value was 75% and the pIC50 was 5.64.

In the case of O=C(O)c1ccc(CSc2ccc(Cl)cc2NS(=O)(=O)c2ccc(Cl)c(C(F)(F)F)c2)cc1 [4-({[4-chloro-2-({[4-chloro-3-(trifluoromethyl)phenyl]sulfonyl}amino)phenyl]sulfanyl}methyl)benzoic acid], the “CCR2 % ANTAGONISM” value was 102% and the pIC50 was 6.59.

For O=C(NCCN1CCCC1)c1ccc(C[S+]([O-])c2ccc(Cl)cc2NS(=O)(=O)c2ccc(Cl)c(C(F)(F)F)c2)cc1 (centres unmarked) [4-({[4-chloro-2-({[4-chloro-3-(trifluoromethyl)phenyl]sulfonyl}amino)phenyl]sulfinyl}methyl)-N-[2-(pyrrolidin-1-yl)ethyl]benzamide], the “CCR2 % ANTAGONISM” value was 85% and the pIC50 was 5.85.

— patent publication US8822530B2, “Sulfur derivatives as chemokine receptor modulators” (Allergan, Inc., priority 2010, dated 2014)
